Measurements taken from PubChem BioAssay (NCI).
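Where inhibition never reached the appropriate level, the endpoint shown equals the highest concentration tested. Otherwise, values were interpolated linearly from a five-concentration, 48-hour dose response in 96-well plates. At the TGI there is no net growth.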

Experiments:
Test in all cases: NCI anticancer screen, dose series, 48 h
A498 renal = system: A498 renal
M19-MEL melanoma = system: M19-MEL melanoma
SNB-75 CNS = system: SNB-75 CNS
LOX IMVI melanoma = system: LOX IMVI melanoma
M14 melanoma = system: M14 melanoma
OVCAR-3 ovarian = system: OVCAR-3 ovarian
NCI-H226 lung = system: NCI-H226 lung
OVCAR-5 ovarian = system: OVCAR-5 ovarian
HT29 colon = system: HT29 colon
OVCAR-4 ovarian = system: OVCAR-4 ovarian
HOP-92 NSCLC = system: HOP-92 NSCLC
DMS 273 small cell lung = system: DMS 273 small cell lung
CAKI-1 renal = system: CAKI-1 renal
RXF 393 renal = system: RXF 393 renal
NCI-H460 lung = system: NCI-H460 lung
SK-MEL-28 melanoma = system: SK-MEL-28 melanoma
A549 NSCLC = system: A549 NSCLC
EKVX NSCLC = system: EKVX NSCLC
UACC-62 melanoma = system: UACC-62 melanoma
COLO 205 colon = system: COLO 205 colon
SNB-78 CNS = system: SNB-78 CNS
KM20L2 colon = system: KM20L2 colon
TK-10 renal = system: TK-10 renal
HCC-2998 colon = system: HCC-2998 colon
NCI-H23 lung = system: NCI-H23 lung
NCI-H522 lung = system: NCI-H522 lung
DMS 114 small cell lung = system: DMS 114 small cell lung
IGROV1 ovarian = system: IGROV1 ovarian
K-562 leukemia = system: K-562 leukemia
HOP-62 NSCLC = system: HOP-62 NSCLC
SF-539 CNS = system: SF-539 CNS
MALME-3M melanoma = system: MALME-3M melanoma
U251 CNS = system: U251 CNS
UO-31 renal = system: UO-31 renal
HL-60(TB) leukemia = system: HL-60(TB) leukemia
XF 498 CNS = system: XF 498 CNS
KM12 colon = system: KM12 colon
SW-620 colon = system: SW-620 colon
DLD-1 colon = system: DLD-1 colon
786-0 renal = system: 786-0 renal
ACHN renal = system: ACHN renal
CCRF-CEM leukemia = system: CCRF-CEM leukemia
RPMI-8226 leukemia = system: RPMI-8226 leukemia
SF-295 CNS = system: SF-295 CNS
SN12C renal = system: SN12C renal
SNB-19 CNS = system: SNB-19 CNS
HCT-15 colon = system: HCT-15 colon
HCT-116 colon = system: HCT-116 colon
MOLT-4 leukemia = system: MOLT-4 leukemia
SF-268 CNS = system: SF-268 CNS
UACC-257 melanoma = system: UACC-257 melanoma
SK-MEL-5 melanoma = system: SK-MEL-5 melanoma
SK-MEL-2 melanoma = system: SK-MEL-2 melanoma
OVCAR-8 ovarian = system: OVCAR-8 ovarian
LXFL 529 NSCLC = system: LXFL 529 NSCLC
SR leukemia = system: SR leukemia
SK-OV-3 ovarian = system: SK-OV-3 ovarian

**Q.** With `CSC(=NC(=O)c1ccccc1Cl)SCCSC(=NC(=O)c1ccccc1Cl)SC` as the compound, how does the TGI (A498 renal) read?
**A.** The TGI was over 100 µM.

**Q.** What about the TGI (M19-MEL melanoma) of the same compound?
**A.** Its TGI is over 100 µM.

**Q.** What about the TGI (SNB-75 CNS) of the same compound?
**A.** Its TGI is over 100 µM.

**Q.** And the TGI (LOX IMVI melanoma)?
**A.** Its TGI is over 100 µM.

**Q.** What about the TGI (M14 melanoma) of the same compound?
**A.** The TGI was over 100 µM.

**Q.** What about the TGI (OVCAR-3 ovarian) of the same compound?
**A.** Its TGI is over 100 µM.

**Q.** What about the TGI (NCI-H226 lung) of the same compound?
**A.** The TGI was over 100 µM.

**Q.** What about the TGI (OVCAR-5 ovarian) of the same compound?
**A.** The TGI was over 100 µM.

**Q.** What about the TGI (HT29 colon) of the same compound?
**A.** Its TGI is over 100 µM.

**Q.** And the TGI (OVCAR-4 ovarian)?
**A.** Its TGI is over 100 µM.

**Q.** And the TGI (HOP-92 NSCLC)?
**A.** Its TGI is over 100 µM.

**Q.** And the TGI (DMS 273 small cell lung)?
**A.** Its TGI is over 100 µM.

**Q.** And the TGI (CAKI-1 renal)?
**A.** Its TGI is over 100 µM.

**Q.** What about the TGI (RXF 393 renal) of the same compound?
**A.** The TGI was over 100 µM.

**Q.** What about the TGI (NCI-H460 lung) of the same compound?
**A.** The TGI was over 100 µM.

**Q.** What about the TGI (SK-MEL-28 melanoma) of the same compound?
**A.** Its TGI is over 100 µM.

**Q.** And the TGI (A549 NSCLC)?
**A.** The TGI was over 100 µM.

**Q.** What about the TGI (EKVX NSCLC) of the same compound?
**A.** The TGI was over 100 µM.

**Q.** And the TGI (UACC-62 melanoma)?
**A.** Its TGI is over 100 µM.

**Q.** And the TGI (COLO 205 colon)?
**A.** Its TGI is over 100 µM.

**Q.** And the TGI (SNB-78 CNS)?
**A.** The TGI was over 100 µM.

**Q.** What about the TGI (KM20L2 colon) of the same compound?
**A.** The TGI was over 100 µM.

**Q.** And the TGI (TK-10 renal)?
**A.** The TGI was over 100 µM.

**Q.** And the TGI (HCC-2998 colon)?
**A.** The TGI was over 100 µM.

**Q.** And the TGI (NCI-H23 lung)?
**A.** Its TGI is over 100 µM.

**Q.** What about the TGI (NCI-H522 lung) of the same compound?
**A.** The TGI was over 100 µM.

**Q.** And the TGI (DMS 114 small cell lung)?
**A.** The TGI was over 100 µM.

**Q.** And the TGI (IGROV1 ovarian)?
**A.** The TGI was over 100 µM.

**Q.** What about the TGI (K-562 leukemia) of the same compound?
**A.** The TGI was over 100 µM.

**Q.** And the TGI (HOP-62 NSCLC)?
**A.** The TGI was over 100 µM.

**Q.** What about the TGI (SF-539 CNS) of the same compound?
**A.** Its TGI is over 100 µM.

**Q.** What about the TGI (MALME-3M melanoma) of the same compound?
**A.** Its TGI is over 100 µM.

**Q.** What about the TGI (U251 CNS) of the same compound?
**A.** Its TGI is over 100 µM.

**Q.** And the TGI (UO-31 renal)?
**A.** The TGI was over 100 µM.

**Q.** What about the TGI (HL-60(TB) leukemia) of the same compound?
**A.** The TGI was over 100 µM.

**Q.** And the TGI (XF 498 CNS)?
**A.** Its TGI is over 100 µM.

**Q.** What about the TGI (KM12 colon) of the same compound?
**A.** The TGI was over 100 µM.

**Q.** And the TGI (SW-620 colon)?
**A.** The TGI was over 100 µM.

**Q.** What about the TGI (DLD-1 colon) of the same compound?
**A.** The TGI was over 100 µM.

**Q.** And the TGI (786-0 renal)?
**A.** The TGI was over 100 µM.

**Q.** What about the TGI (ACHN renal) of the same compound?
**A.** The TGI was over 100 µM.

**Q.** What about the TGI (CCRF-CEM leukemia) of the same compound?
**A.** The TGI was over 100 µM.

**Q.** And the TGI (RPMI-8226 leukemia)?
**A.** Its TGI is over 100 µM.

**Q.** What about the TGI (SF-295 CNS) of the same compound?
**A.** Its TGI is over 100 µM.

**Q.** What about the TGI (SN12C renal) of the same compound?
**A.** The TGI was over 100 µM.

**Q.** What about the TGI (SNB-19 CNS) of the same compound?
**A.** The TGI was over 100 µM.

**Q.** And the TGI (HCT-15 colon)?
**A.** Its TGI is over 100 µM.

**Q.** What about the TGI (HCT-116 colon) of the same compound?
**A.** The TGI was over 100 µM.

**Q.** What about the TGI (MOLT-4 leukemia) of the same compound?
**A.** Its TGI is over 100 µM.

**Q.** And the TGI (SF-268 CNS)?
**A.** The TGI was over 100 µM.

**Q.** What about the TGI (UACC-257 melanoma) of the same compound?
**A.** The TGI was over 100 µM.

**Q.** What about the TGI (SK-MEL-5 melanoma) of the same compound?
**A.** The TGI was over 100 µM.

**Q.** What about the TGI (SK-MEL-2 melanoma) of the same compound?
**A.** Its TGI is over 100 µM.

**Q.** What about the TGI (OVCAR-8 ovarian) of the same compound?
**A.** Its TGI is over 100 µM.

**Q.** What does the source list for `CC#Cc1c(O)c2c(c(O)c1C#CC)C(=O)c1ccccc1C2=O`?
**A.** TGI (M19-MEL melanoma): > 100 µM; TGI (LOX IMVI melanoma): > 100 µM; TGI (M14 melanoma): > 100 µM; TGI (LXFL 529 NSCLC): 42.7 µM; TGI (OVCAR-5 ovarian): > 100 µM; TGI (OVCAR-4 ovarian): > 100 µM; TGI (DMS 273 small cell lung): > 100 µM; TGI (CAKI-1 renal): > 100 µM; TGI (A549 NSCLC): > 100 µM; TGI (EKVX NSCLC): > 100 µM; TGI (UACC-62 melanoma): > 100 µM; TGI (COLO 205 colon): > 100 µM; TGI (KM20L2 colon): > 100 µM; TGI (TK-10 renal): > 100 µM; TGI (HCC-2998 colon): > 100 µM; TGI (DMS 114 small cell lung): > 100 µM; TGI (IGROV1 ovarian): > 100 µM; TGI (K-562 leukemia): > 100 µM; TGI (SR leukemia): > 100 µM; TGI (HOP-62 NSCLC): > 100 µM; TGI (MALME-3M melanoma): > 100 µM; TGI (U251 CNS): > 100 µM; TGI (HL-60(TB) leukemia): > 100 µM; TGI (XF 498 CNS): > 100 µM; TGI (SW-620 colon): > 100 µM; TGI (DLD-1 colon): > 100 µM; TGI (SK-OV-3 ovarian): > 100 µM; TGI (786-0 renal): > 100 µM; TGI (ACHN renal): > 100 µM; TGI (CCRF-CEM leukemia): > 100 µM; TGI (RPMI-8226 leukemia): > 100 µM; TGI (SN12C renal): > 100 µM; TGI (HCT-15 colon): > 100 µM; TGI (MOLT-4 leukemia): > 100 µM; TGI (SK-MEL-5 melanoma): > 100 µM; TGI (SK-MEL-2 melanoma): > 100 µM; TGI (OVCAR-8 ovarian): > 100 µM
